From patent US12180198B2, “Ribocil C antibiotics effective for Gram-negative pathogens” (THE BOARD OF TRUSTEES OF THE UNIVERSITY OF ILLINOIS, priority 2018, dated 2024)
Structures can show the parent of a compound that is named as a salt.

Experiments:
[1] = test system: Gram-negative ESKAPE pathogens and E. coli; assay: MIC, micro-dilution broth method (text summary); assay type: cell-based
[2] = test system: E. cloacae, K. pneumoniae, and A. baumannii; assay: MIC, micro-dilution broth method (text summary); assay type: cell-based; details: strains of E. cloacae
[3] = test system: E. coli harboring FabI A116V; assay: MIC against resistant mutants; assay type: cell-based; details: Escherichia coli
Experimental: Antimicrobial susceptibility tests. Susceptibility testing was performed in biological triplicate, using the micro-dilution broth method as outlined by the Clinical and Laboratory Standards Institute. Bacteria were cultured with cation-adjusted Muller-Hinton broth (Sigma-Aldrich, Cat #90922) in round-bottom 96-well plates (Corning, Cat #3788). Human serum (pooled gender, 0.2 μm filtered) was purchased from BioIVT (Hicksville, NY).
Selection of resistant mutants. Resistant mutants were selected via the large inoculum method.

A. baumannii W41979 [4] = assay: Bacterial sepsis survival model; assay type: in vivo; details: CD-1 mice, 50 mg/kg IV once-per-day, four doses
Experimental: (§1) FIG. 4. In vivo efficacy of Debio-1452-NH3. A. Kaplan-Meier survival curve of mouse efficacy model of A. baumannii sepsis. Seven-week-old CD-1 mice were infected with A. baumannii W41979 (2.6×10^8 CFU/mouse, 15 mice per group) via IV injection. Mice were treated once-a-day for 4 days with FabI inhibitor (IV, 50 mg/kg). Log-rank test, p<0.0001. B. Acute pneumonia infections initiated in CD-1 mice with A. baumannii W41979 (2.1×10^8 CFU/mouse, intranasal) were treated with vehicle (8 mice) or FabI inhibitor (10 mice per group) 8, 30, and 48 h post-infection (IV, 50 mg/kg), and the bacterial burden was evaluated 72 h post-infection. C. Kaplan-Meier survival curve of in vivo efficacy model of K. pneumonia sepsis. Seven-week-old CD-1 mice were infected with K. pneumoniae BAA-1705 (1.08×10^8 CFU/mouse, 15 mice per group) via IV injection. […] Acute pneumonia infections initiated in CD-1 mice with K. pneumoniae BAA-1705 (4.4×10^8 CFU/mouse, intranasal) were treated with vehicle or FabI inhibitor (8 mice per group) 6, 23, and 45 h post-infection (IV, 50 mg/kg), and the bacterial burden was evaluated 72 h post-infection. […] Acute pneumonia infections initiated in CD-1 mice with E. coli AR-0493 (1.73×10^8 CFU/mouse, intranasal) were treated with vehicle or FabI inhibitor (8 mice per group) 6 and 28 h post-infection (IV, 50 mg/kg), and the bacterial burden was evaluated 48 h post-infection. […]

A. baumannii W41979 [5] = assay: Acute pneumonia bacterial burden model; assay type: in vivo; details: CD-1 mice, 50 mg/kg IV
Experimental: as §1, with “C.” for “C. Kaplan-Meier survival curve of in vivo efficacy model of K. pneumonia sepsis. Seven-week-old CD-1 mice were infected with K. pneumoniae BAA-1705 (1.08×10^8 CFU/mouse, 15 mice per group) via IV injection.”
(§2) Acute pneumonia bacterial burden model. […] At 48 h post-infection (E. coli) or 72 h post-infection (A. baumannii and K. pneumoniae), CFU were determined in the lungs through serial dilutions. […]

[6] = test system: carbepenem-resistant K. pneumoniae; assay: Sepsis survival and pneumonia bacterial burden models; assay type: in vivo; details: CD-1 mice, K. pneumoniae BAA-1705, 50 mg/kg IV
Experimental: as §1, with “C.” for “C. Kaplan-Meier survival curve of in vivo efficacy model of K. pneumonia sepsis. Seven-week-old CD-1 mice were infected with K. pneumoniae BAA-1705 (1.08×10^8 CFU/mouse, 15 mice per group) via IV injection.”
as §2

[7] = test system: colistin-resistant E. coli; assay: as above; assay type: in vivo; details: CD-1 mice, E. coli AR-0493, 50 mg/kg IV
Experimental: as §1, with “C.” for “C. Kaplan-Meier survival curve of in vivo efficacy model of K. pneumonia sepsis. Seven-week-old CD-1 mice were infected with K. pneumoniae BAA-1705 (1.08×10^8 CFU/mouse, 15 mice per group) via IV injection.”
as §2

| SMILES | MIC ([1]; Escherichia coli, Gram-negative ESKAPE pathogens and E. coli) | activity (in words) ([1]; Gram-negatives with intact outer membranes) | MIC [2] | MIC [3] | survival (in words) (A. baumannii W41979 [4]) | bacterial burden (in words) (A. baumannii W41979 [5]) | efficacy in infected mice (in words) [6] | efficacy in infected mice (in words) [7] |
| --- | --- | --- | --- | --- | --- | --- | --- | --- |
| Cc1c(CN(C)C(=O)/C=C/c2cnc3c(c2)CCC(=O)N3)oc2ccccc12 [Debio-1452, (E)-N-methyl-N-((3-methylbenzofuran-2-yl)methyl)-3-(7-oxo-5,6,7,8-tetrahydro-1,8-naphthyridin-3-yl)acrylamide, reference compound] | > 32 µg/mL | no activity | – | – | – | – | – | – |
| Cc1c(CN(C)C(=O)/C=C/c2cnc3c(c2)CC(N)C(=O)N3)oc2ccccc12 (centres unmarked) [Debio-1452-NH3, (E)-3-(6-amino-7-oxo-5,6,7,8-tetrahydro-1,8-naphthyridin-3-yl)-N-methyl-N-((3-methylbenzofuran-2-yl)methyl)acrylamide hydrochloride] | – | – | 4 to 8 µg/mL | 64 µg/mL | significantly increased survival | reduced bacterial burden | efficacy | efficacy |
